Results: publication PMC7697893, “Novel 1-Amidino-4-Phenylpiperazines as Potent Agonists at Human TAAR1 Receptor: Rational Design, Synthesis, Biological Evaluation and Molecular Docking Studies” (Pharmaceuticals, 2020)
Where a name gives a salt, the structure may show the parent alone. Read-outs that look alike come from different tables or passages of the source. Each block holds one molecule with its values, some of them ahead of it.

Columns and labels:
hTAAR1 [1] = biological target: T1, hTAAR1 (Homo sapiens, UniProt Q96RJ0)
T1 construct: expressed in transfected cells; host or cells: HEK-293T (ATCC)
T1 sequence (Q96RJ0 1-339): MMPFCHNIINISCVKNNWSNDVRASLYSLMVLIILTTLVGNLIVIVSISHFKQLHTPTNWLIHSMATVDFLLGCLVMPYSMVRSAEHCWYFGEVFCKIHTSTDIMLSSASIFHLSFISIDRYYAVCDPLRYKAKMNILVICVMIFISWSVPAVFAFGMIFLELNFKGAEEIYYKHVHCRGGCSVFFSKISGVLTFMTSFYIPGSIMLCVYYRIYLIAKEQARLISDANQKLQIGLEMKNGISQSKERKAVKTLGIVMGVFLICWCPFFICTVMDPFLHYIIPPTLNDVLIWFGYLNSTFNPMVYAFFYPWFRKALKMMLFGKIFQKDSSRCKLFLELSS

mTAAR1 = system: mTAAR1; parameters: method as in PMID 27823885, PMID 29407948; settings: Figure 2, biguanides SET1 and SET2; cited from earlier work
hTAAR1 [2] = biological target: T1, hTAAR1; experiment: Functional activity at hTAAR1, cAMP BRET biosensor in HEK-293T cells; type: cell-based; settings: for Emax at 10 µM: HEK-293T, read-out: hTAAR1 Activity
Experimental: The activity of the compounds was measured using human embryonic kidney 293 (HEK-293T) cells co-transfected with plasmids encoding hTAAR1 and a cAMP Bioluminescence Resonance Energy Transfer (BRET) biosensor, or empty vector as a control. TYR was used as a positive control for agonism. Firstly, all the compounds were tested at 10 μM either for agonistic or antagonistic activity.
BRET screening was described in detail elsewhere. HEK-293T (ATCC) cells were transiently сo-transfected with plasmids encoding hTAAR1 and a cAMP BRET biosensor using Lipofectamine® (ThermoFisher) reagent, and then plated in 96-well plates (Corning) at […] per well. On the following day, culture medium was removed and 70 μL of phosphate-buffered saline containing calcium and magnesium was added to each well, followed by the addition of 10 μL […] 3-isobutyl-1-methylxanthine solution (Sigma), and 10 μL 50 μM coelenterazine-h solution (Promega). All tested compounds were dissolved in DMSO to yield 10 mM stock solutions. After 10 min incubation, either 10 μL of vehicle or 10× of the concentrated solution of compound to be tested (10 μM final concentration) was added. Readings were collected using a Mithras LB943 multimodal plate reader (Berthold Technologies). The BRET signal is determined by calculating the ratio of the light emitted at 505 to 555 nm to the light emitted at 465 to 505 nm.
Curves were fitted by applying non-linear regression models on GraphPad Prism 6 (GraphPad Software).

[3] = parameters: method as in PMID 5169226; settings: rats, intraperitoneal, 100 mg/kg; cited from earlier work
[4] = Cell cytotoxicity assay (MTT) on Vero-76 cells; type: cell-based, Cercopithecus Aethiops; settings: Cercopithecus aethiops (African green monkey), Vero-76 cells; MTT method, 48–96 h; CC50±SEM
Experimental: (§1) Vero-76 cells (ATCC CRL 1587 Cercopithecus Aethiops) were seeded at an initial density of 4 × 10^5 cells/mL in 24-well plates, in culture medium (Dulbecco’s Modified Eagle Medium (D-MEM) with L-glutamine, supplemented with fetal bovine serum (FBS), 0.025 g/L kanamycin). Cell cultures were then incubated at 37 °C in a humidified, 5% CO2 atmosphere in the absence or presence of serial dilutions of test compounds. Cell viability was determined after 48–96 h at 37 °C by the MTT staining method. The results are expressed as CC50, which is the concentration of compound necessary to inhibit cell growth by 50%. Each CC50 value is the mean and standard deviation of at least three separate experiments performed in duplicate.

Vero-76 cells = experiment: Cell cytotoxicity assay (MTT) on Vero-76 cells; type: cell-based, Cercopithecus Aethiops; settings: ratio of Vero-76 CC50 to hTAAR1 EC50
Experimental: as §1

[5] = parameters: method as in PMID 5719030; settings: potentiating pressor effect of tyramine and NE; cited from earlier work
human hepatocyte = settings: cited from earlier work
[6] = cited from earlier work
[7] = Figure 2, biguanides SET1 and SET2; cited from earlier work
[8] = Figure 2, biguanides SET1 and SET2; read-out: hTAAR1 EC50; cited from earlier work
[9] = dose–response 10 nM to 10 μM, means of 4 experiments, errors within 10%, read-out: hTAAR1 EC50
[10] = hTAAR1, amidines of this paper, from EC50, read-out: pEC50 (converted)
[11] = as compared with 1 µM TYR (full agonism), compounds tested at 10 μM

melting point: 170 to 173 °C
Structure (SMILES): N=C(N)N1CCN(c2cccc(C(F)(F)F)c2)CC1 (as salt: hydrochloride) [Compound 9, 4-[(3-Trifluoromethyl)phenyl]piperazine-1-carboximidamide hydrochloride]

Structure (SMILES): CCc1[nH]nc(C(=O)Nc2ccc([C@H]3CNCCO3)cc2)c1C [(4-Aminophenyl)morpholino derivative]
hTAAR1 efficacy (hTAAR1 [1]; partial agonist; cited from earlier work): 42%

Structure (SMILES): NC(N)=NC(N)=Nc1ccccc1Cl [BIG2]
EC50 (mTAAR1): 410 nM

Structure (SMILES): NC(N)=NC(N)=Nc1ccc(Cl)cc1 [BIG4]
EC50 (mTAAR1): 2100 nM | hTAAR1 EC50 (hTAAR1 [1]; [7]): inactive | EC50 (hTAAR1 [1]; read-out: hTAAR1 EC50; Figure 2, biguanides SET1 and SET2; cited from earlier work): > 10000 nM

Structure (SMILES): Cc1ccc(NC(=N)N=C(N)N)cc1 [BIG8]
EC50 (mTAAR1): 1700 nM | hTAAR1 EC50 (hTAAR1 [1]; [7]): inactive | EC50 (hTAAR1 [1]; [8]): > 10000 nM

Structure (SMILES): COc1ccc(N=C(N)N=C(N)N)cc1 [BIG9]
mTAAR1 EC50 (mTAAR1): inactive | hTAAR1 EC50 (hTAAR1 [1]; [7]): inactive

Structure (SMILES): N=C(N)NC(=N)NCc1ccccc1 [BIG10, 1-benzylbiguanide]
EC50 (mTAAR1): 780 nM | EC50 (hTAAR1 [1]; [8]): > 10000 nM

Structure (SMILES): NC(N)=NC(N)=NCc1cccc(Cl)c1 [BIG12]
EC50 (mTAAR1): 97 nM

Structure (SMILES): NC(N)=NC(N)=NCc1ccc(Cl)c(Cl)c1 [BIG14]
EC50 (mTAAR1): 36 nM

Structure (SMILES): COc1ccc(CN=C(N)N=C(N)N)cc1 [BIG17]
mTAAR1 EC50 (mTAAR1): inactive | hTAAR1 EC50 (hTAAR1 [1]; [7]): inactive

Structure (SMILES): Cl.N=C(N)N1CCN(c2ccccc2)CC1 [Compound 1, 4-Phenylpiperazine-1-carboximidamide hydrochloride]
melting point: 214 to 217 °C | Emax at 10 µM (hTAAR1 [2]): 71% | EC50 (hTAAR1 [2]; [9]): 370 nM | increase of the concentration of NE in the brain [3]: about 34.5% | increase of the concentration of NE in the heart [3]: ~42.7% | CC50 [4]: 84000 ± 5000 nM | Therapeutic index (CC50/EC50) (Vero-76 cells): 227 | sympathomimetic effect [5]: a rise in the blood pressure

Structure (SMILES): N=C(N)N=C(N)N1CCN(c2ccccc2)CC1 [Compound 1a, 1-phenyl-4-biguanylpiperazine]
EC50 (mTAAR1): 2380 nM

Structure (SMILES): Cc1ccccc1N1CCN(C(=N)N)CC1.Cl [Compound 2, 4-(o-Tolyl)piperazine-1-carboximidamide hydrochloride]
melting point: 159 to 162 °C | Emax at 10 µM (hTAAR1 [2]): 100% | EC50 (hTAAR1 [2]; [10]): 30.2 nM | CC50 [4]: 80000 ± 5000 nM | Therapeutic index (CC50/EC50) (Vero-76 cells): 2667

Structure (SMILES): Cl.N=C(N)N1CCN(c2ccccc2Cl)CC1 [Compound 3, 4-(2-Chlorophenyl)piperazine-1-carboximidamide hydrochloride]
Emax at 10 µM (hTAAR1 [2]): 90% | EC50 (hTAAR1 [2]; [9]): 160 nM | CC50 [4]: > 100000 nM | Therapeutic index (CC50/EC50) (Vero-76 cells): 625

Structure (SMILES): N=C(N)N=C(N)N1CCN(c2ccccc2Cl)CC1 [Compound 3a]
EC50 (mTAAR1): 2660 nM

Structure (SMILES): Cl.N=C(N)N1CCN(c2cccc(Cl)c2)CC1 [Compound 4, 4-(3-Chlorophenyl)piperazine-1-carboximidamide hydrochloride]
Emax at 10 µM (hTAAR1 [2]): 35% | EC50 (hTAAR1 [2]; [9]): > 2000 nM | CC50 [4]: 90000 ± 3000 nM | Therapeutic index (CC50/EC50) (Vero-76 cells): 45 | sympathomimetic effect [5]: a rise in the blood pressure

Structure (SMILES): Cl.N=C(N)N1CCN(c2ccc(Cl)cc2)CC1 [Compound 5, 4-(4-Chlorophenyl)piperazine-1-carboximidamide hydrochloride]
hTAAR1 Activity (hTAAR1 [2]; [11]): inactive | CC50 [4]: 95000 ± 3000 nM | sympathomimetic effect [5]: a rise in the blood pressure

Structure (SMILES): COc1ccccc1N1CCN(C(=N)N)CC1.Cl [Compound 6, 4-(2-Methoxyphenyl)piperazine-1-carboximidamide hydrochloride]
Emax at 10 µM (hTAAR1 [2]): 64% | EC50 (hTAAR1 [2]; [9]): 93 nM | CC50 [4]: 83000 ± 5000 nM | Therapeutic index (CC50/EC50) (Vero-76 cells): 892

Structure (SMILES): COc1cccc(N2CCN(C(=N)N)CC2)c1.Cl [Compound 7, 4-(3-Methoxyphenyl)piperazine-1-carboximidamide hydrochloride]
Emax at 10 µM (hTAAR1 [2]): 32% | EC50 (hTAAR1 [2]; [9]): 244 nM | CC50 [4]: 87000 ± 4000 nM | Therapeutic index (CC50/EC50) (Vero-76 cells): 357

Structure (SMILES): COc1ccc(N2CCN(C(=N)N)CC2)cc1.Cl [Compound 8, 4-(4-Methoxyphenyl)piperazine-1-carboximidamide hydrochloride]
hTAAR1 Activity (hTAAR1 [2]; [11]): inactive | CC50 [4]: 88000 ± 2000 nM

Structure (SMILES): COc1ccc(N2CCN(C(N)=NC(=N)N)CC2)cc1 [Compound 8a]
mTAAR1 EC50 (mTAAR1): inactive

Emax at 10 µM (hTAAR1 [2]; [11]): 80% | EC50 (hTAAR1 [2]; [9]): 64 nM
Structure (SMILES): N=C(N)N1CCN(c2cccc(C(F)(F)F)c2)CC1 [Compound 9, 4-[(3-Trifluoromethyl)phenyl]piperazine-1-carboximidamide hydrochloride]
CC50 [4]: > 100000 nM | Therapeutic index (CC50/EC50) (Vero-76 cells): 1562

Structure (SMILES): Cl.N=C(N)N1CCN(c2ccccn2)CC1 [Compound 10, 4-(Pyridin-2-yl)Piperazine-1-Carboximidamide Hydrochloride]
melting point: 205 to 208 °C | Emax at 10 µM (hTAAR1 [2]): 30% | EC50 (hTAAR1 [2]; [9]): > 2000 nM | CC50 [4]: 74000 ± 5000 nM | Therapeutic index (CC50/EC50) (Vero-76 cells): 37

Structure (SMILES): N=C(N)N=C(N)N1CCN(c2ncccn2)CC1 [Compound 10a]
EC50 (mTAAR1): 9000 nM | hTAAR1 EC50 (hTAAR1 [1]; [7]): inactive

Structure (SMILES): Cl.N=C(N)N1CCN(c2ncccn2)CC1 [Compound 11, 4-(Pyrimidin-2-yl)piperazine-1-carboximidamide hydrochloride]
hTAAR1 Activity (hTAAR1 [2]; [11]): inactive | CC50 [4]: 64000 ± 2000 nM

Structure (SMILES): Cl.N#Cc1ccccc1N1CCN(C(=N)N)CC1 [Compound 12, 4-(2-Cyanophenyl)piperazine-1-carboximidamide hydrochloride]
melting point: 236 to 238 °C | hTAAR1 Activity (hTAAR1 [2]; [11]): inactive | CC50 [4]: 78000 ± 2000 nM

Structure (SMILES): Cl.N=C(N)N1CCN(c2ccccc2F)CC1 [Compound 13, 4-(2-Fluorophenyl)piperazine-1-carboximidamide hydrochloride]
melting point: 145 to 148 °C | hTAAR1 Activity (hTAAR1 [2]; [11]): inactive | CC50 [4]: 87000 ± 5000 nM

Structure (SMILES): Cl.N=C(N)N1CCN(c2ccc(F)cc2)CC1 [Compound 14, 4-(4-Fluorophenyl)piperazine-1-carboximidamide hydrochloride]
hTAAR1 Activity (hTAAR1 [2]; [11]): inactive | CC50 [4]: 94000 ± 6000 nM

Structure (SMILES): Cl.N=C(N)N1CCN(c2cccc(Cl)c2Cl)CC1 [Compound 15, 4-(2,3-Dichlorophenyl)piperazine-1-carboximidamide hydrochloride]
Emax at 10 µM (hTAAR1 [2]): 81% | EC50 (hTAAR1 [2]; [10]): 20 nM | CC50 [4]: 82000 ± 5000 nM | Therapeutic index (CC50/EC50) (Vero-76 cells): 4100

Structure (SMILES): Cl.N=C(N)N1CCN(c2ccc(Cl)c(Cl)c2)CC1 [Compound 16, 4-(3,4-Dichlorophenyl)piperazine-1-carboximidamide hydrochloride]
melting point: 235 to 237 °C | Emax at 10 µM (hTAAR1 [2]): 49% | EC50 (hTAAR1 [2]; [9]): 71 nM | CC50 [4]: 89000 ± 4000 nM | Therapeutic index (CC50/EC50) (Vero-76 cells): 1254

Structure (SMILES): NC1=N[C@H](c2ccc(Br)cc2)CO1 [Compound 27b]
pEC50 (hTAAR1 [1]; 2-aminooxazolines reported by Roche, Table S1; cited from earlier work): 5.00 M

Structure (SMILES): Cc1c(F)cccc1[C@H]1COC(N)=N1 [RO5263397]
human hepatocyte clearance (human hepatocyte): acceptable | AMES/MNT test [6]: negative

hTAAR1 Activity (hTAAR1 [2]; [11]): 100% | EC50 (hTAAR1 [2]; [9]): 66 nM
Structure (SMILES): NCCc1ccc(O)cc1 [TYR, tyramine, reference compound]

Structure (SMILES): NCCc1ccccc1 [β-PEA, β-phenylethylamine]
pEC50 (hTAAR1 [1]; hTAAR1; endogenous agonist, no reference given; cited from earlier work): 6.70 M
